Assay results from patent US20260345649A1, “PHARMACEUTICAL COMPOSITION FOR DESTRUCTION OF TUMOR BLOOD VESSELS” (SAMSUNG MEDICAL FOUNDATION, priority 2022, published 2026).

Legend:
[1] = tested on: HUVECs; test: MTS cell proliferation assay, 5-FU cytotoxicity in HUVECs at different pH; assay type: cell-based, human; conditions: FIG. 5
Procedure: To evaluate the cytotoxic effect of 5-fluorouracil (5-FU) in human umbilical vein endothelial cells (HUVECs) under different pH conditions, an MTS cell proliferation assay was performed.
Subsequently, the cells were cultured for an additional 24 hours in Dulbecco's Modified Eagle's Medium (DMEM) containing 5-FU at different pH conditions (pH 6.4, 7.4, 8.4, and 9.0). Following the incubation, the cells were washed twice with phosphate-buffered saline (PBS), after which 100 μL of fresh DMEM growth medium was added, followed by an additional 48-hour incubation. […] After an additional 2-hour incubation, the absorbance was measured at 490 nm using a microplate reader (Model 680, BIO-RAD; Spark, TECAN, CA, USA).

[2] = tested on: patients; conditions: cited from earlier work
[3] = tested on: CD31; test: CD31 immunohistochemical staining of gastric tumor tissue after local injection of 5-FU in nude mice; assay type: in vivo
Procedure: To observe changes in vascular tissue within gastric tumor masses after local injection of 5-FU, immunohistochemical staining for CD31 and VEGF was performed.
For the control group, gastric tumor tissue was implanted in the dorsal region of nude mice, and when the tumor reached a size of 1 cm×1 cm, it was excised and used. For the 5-FU injection group, 5 mg of 5-FU was injected at the base of the tumor when the implanted tumor reached a size of 1 cm×1 cm. […] The immunohistochemical staining method was as follows.
To reduce endogenous peroxidase activity present in blood cells within the tissue, the slides were treated at room temperature with 3% H2O2 in methanol for 15 minutes. […] The slides were washed twice with TBST (Tris-buffered saline with 0.1% Tween® 20 Detergent) for 3 minutes each, followed by incubation at room temperature for 15 minutes with Detection Kit Reagent 1 (HRP Polymer-anti-mouse/rabbit IgG). […] For counterstaining, Harris hematoxylin was applied.
For result analysis, the proportion of the area stained for CD31-positive blood vessels and VEGF-positive cancer cells relative to the total tissue area was calculated, and a comparison was made between the control group and the 5-FU locally injected group.

[4] = tested on: HUVECs; test: LDH release assay in HUVECs; assay type: cell-based, human; conditions: 1 mM, 5 mM, and 10 mM 5-FU, time-dependent, P<0.05, FIG. 4
Procedure: It has been generally reported that an increase in the expression of thrombospondin-1 (TSP-1) and thrombospondin-2 (TSP-2) induces apoptosis in endothelial cells. To investigate whether the administration of 5-fluorouracil (5-FU) enhances apoptosis in endothelial cells, an LDH release assay was conducted in human umbilical vein endothelial cells (HUVECs). Cytotoxicity was assessed based on the amount of lactate dehydrogenase (LDH) released due to cell membrane damage. The released LDH was quantified using an LDH assay kit (EZ-LDH1000; DoGenBio, Seoul, Korea) according to the manufacturer's protocol.
HUVECs (5×10^4 cells/well) were seeded in a 96-well polystyrene plate and incubated at 37 °C for 24 hours. LDH substrate was added to each well, followed by an additional incubation at 37 °C for 10 minutes. The plate was centrifuged at 600 g for 5 minutes. A 10-μL aliquot of the supernatant was transferred from the culture plate wells to an analysis plate. Subsequently, 100 μL of LDH reaction mixture reagent was added to the supernatant in each well of the analysis plate. After a 30-minute reaction, absorbance was measured at 450 nm using a microplate reader (Model 680; Bio-Rad). The cytotoxicity of 5-FU on HUVECs was determined based on the amount of LDH released.

[5] = tested on: HUVEC; test: 5-FU cytotoxicity on HUVEC according to D-glucose or L-glucose concentration (MTS); assay type: cell-based, human
Procedure: An MTS cell proliferation assay was conducted to evaluate the cytotoxic effect of 5-FU on HUVEC according to D-glucose concentration under different pH conditions.
The cells were then incubated for an additional 24 hours in DMEM medium containing various concentrations of glucose.
To assess the cytotoxic effect of L-glucose on HUVEC, the experiment was conducted in the same manner as described in Example 2, Section 3.
To assess the cytotoxic effect of D-glucose or L-glucose on HUVEC, the experiment was conducted in the same manner as described in Example 2, Section 3.

[6] = tested on: subcutaneous muscle layer; test: Pathological changes in the subcutaneous muscle layer after subcutaneous injection of 5-FU (H&E staining); assay type: in vivo, nude mice; design: key to pathological change score (degeneration, necrosis, inflammation, fibrosis): 0: absent; 1: mild; 2: moderate; 3: severe; conditions: 5 mg pH 8.4 5-FU, after 24 hours
Procedure: To observe pathological changes in the surrounding tissue after injecting 5 mg of pH 8.4 5-FU near the tumor, the drug was locally administered to nude mice. After 24 hours, tissues, including muscle layers, were collected and subjected to H&E staining to examine degeneration, necrosis, inflammation, and fibrosis in the muscle layer. The extent of each pathological change was scored as follows: 0=absent, 1=mild, 2=moderate, 3=severe, and the results are shown in FIG. 10A and FIG. 10b. FIG. 10A presents observations at 40× magnification, while FIG. 10b presents observations at 100× magnification.

O=c1[nH]cc(F)c(=O)[nH]1 [5-FU, 5-fluorouracil]
cytotoxicity under alkaline conditions compared to neutral or acidic 5-FU [1]: significantly greater toxicity
cytotoxic effect according to pH ([1]; pH 6.4, 7.4, 8.4, and 9.0, 24 hours): increased as the alkalinity of the drug became stronger
myelosuppression and gastrointestinal toxicity ([2]; due to phosphorylation in the gastrointestinal tract, damage to normal cells): frequent myelosuppression and gastrointestinal toxicity
adverse effects on intravenous administration ([2]; intravenous): associated with adverse effects such as thrombosis
incidence of severe and potentially life-threatening cardiotoxicity ([2]; reported cases): 1.5% to 18
distribution of necrotic tissue in tumor mass ([3]; 5 mg 5-FU, one week, compared to control group, FIG. 6): the distribution of necrotic tissue increased
Immuno-positive area (%) ([3]; CD31, proportion of total tissue area, 5 mg 5-FU, one week after injection, control group 0.87): 0.54%
stained area of CD31 and VEGF ([3]; CD31 and VEGF, compared to control group, Table 1): appeared smaller
vascular distribution within the tumor mass ([3]; compared to control group): reduced
stained area ratio of CD31 ([3]; compared to control group, FIG. 6): lower
amount of released LDH [4]: significantly increased
cell viability upon addition of 5-FU ([5]; 5-FU added to L-glucose 5 mM and 25 mM, FIG. 14): further decreased cell viability
cell viability upon addition of 5-FU ([5]; 5-FU under different pH conditions added to D-glucose 5 mM and 25 mM, FIG. 13): further decrease in cell viability
pathological change score (degeneration, necrosis, inflammation, fibrosis) [6]: 0
pathological changes in the subcutaneous muscle layer at the injection site [6]: no pathological changes were observed
